Literature values in patent US20060240450A1, “Genetic analysis for stratification of cancer risk” (priority 2001, published 2006).
Where a name gives a salt, the structure may show the parent alone.

Test system: uterus and breast tissue
Settings: preliminary clinical data (through 30 months)

Compound: O=C(c1ccc(OCCN2CCCCC2)cc1)c1c(-c2ccc(O)cc2)sc2cc(O)ccc12 [Raloxifene HCl, methanone, [6-hydroxy-2-(4-hydroxyphenyl)benzo[b]thien-3-yl]-[4-[2-(1-piperidinyl)ethoxy]phenyl]-hydrochloride]
- estrogen-like effects on uterus and breast tissue: lacks estrogen-like effects
